These results are taken from patent publication US8263620B2, “Oxadiazole derivatives active on sphingosine-1-phosphate (SIP)” (Glaxo Group Limited, priority 2007, dated 2012).

The test system of one series is circulating lymphocytes. Particulars: animals and man; cited from earlier work.
For series [1] the following is noted: clinical studies, first 24 hours of treatment; cited from earlier work.
The target of a further series is T1, human S1P3 receptor (Homo sapiens, UniProt Q99500).
T1 construct: expressed in transfected cells; membranes
Put plainly: S1P3 GTPγS assay. Format: biochemical. Particulars: [35S]-GTPγS SPA, S1P3 RBL-2H3 membranes, agonist. On the procedure:
For membrane preparations all steps were performed at 4° C. Rat hepatoma cells stably expressing the human S1P1 receptor or Rat Basophilic Leukaemia cells (RBL) stably expressing human S1P3 receptor were grown to 80% confluency before being harvested into 10 ml Phospho-Buffered Saline (PBS) and centrifuged at 1200 rpm for 5 minutes. After removal of the supernatant, the pellet was re-suspended and cells were homogenised within a glass Waring blender for 2 bursts of 15 secs in 200 mls of buffer (50 mM HEPES, 1 mM leupeptin, 25 μg/ml bacitracin, 1 mM EDTA, 1 mM PMSF, 2 μM pepstatin A). The blender was plunged into ice for 5 mins after the first burst and 10-40 mins after the final burst to allow foam to dissipate. The material was then spun at 500 g for 20 mins and the supernatant spun for 36 mins at 48,000 g. The pellet was resuspended in the same buffer as above but without PMSF and pepstatin A. The material was then forced through a 0.6 mm needle, made up to the required volume, (usually ×4 the volume of the original cell pellet), aliquoted and stored frozen at −80° C.
After 30 minutes pre-coupling on ice the bead and membrane suspension was dispensed into a white Greiner polypropylene LV384-well plate (5 μl/well), containing 0.1 μl of the compound. 5 μl/well [^35S]-GTPγS (0.5 nM final radioligand conc) made up in assay buffer was then added to agonist plates. The final assay cocktail (10.1 μl) was centrifuged at 1000 rpm for 5 minutes then read immediately on a Viewlux reader.
All test compounds were dissolved in DMSO at a concentration of 10 mM and were prepared in 100% DMSO using a 1 in 4 dilution step to provide 11 point dose response curves. The dilutions were transferred to the assay plates ensuring that the DMSO concentration was constant across the plate for all assays.
All data was normalized to the mean of 16 high and 16 low control wells on each plate. A four parameter curve fit was then applied.
S1P3 expressing RBL membranes (1.5 μg/well) were homogenised by passing through a 23 G needle. […] GDP 10 μM FAC and saponin 90 μg/ml FAC were also added
After 30 minutes precoupling on ice, the bead and membrane suspension was dispensed into white Greiner polypropylene LV 384-well plates (5 μl/well), containing 0.1 μl of compound. 5 μl/well [^35S]-GTPγS (0.5 nM for S1P1 or 0.3 nM for S1P3 final radioligand concentration) made in assay buffer was then added to the plates. The final assay cocktail (10.1 μl) was then sealed, spun on a centrifuge, then read immediately on a Viewlux instrument.
On the technique in general: Binding of GTPγS marks nucleotide exchange on a G protein.

Molecules are shown by their SMILES. Structures can show the parent of a compound that is named as a salt.

By EC50 is commonly meant the concentration that produces a half-maximal response.

T1 sequence (Q99500 whole entry): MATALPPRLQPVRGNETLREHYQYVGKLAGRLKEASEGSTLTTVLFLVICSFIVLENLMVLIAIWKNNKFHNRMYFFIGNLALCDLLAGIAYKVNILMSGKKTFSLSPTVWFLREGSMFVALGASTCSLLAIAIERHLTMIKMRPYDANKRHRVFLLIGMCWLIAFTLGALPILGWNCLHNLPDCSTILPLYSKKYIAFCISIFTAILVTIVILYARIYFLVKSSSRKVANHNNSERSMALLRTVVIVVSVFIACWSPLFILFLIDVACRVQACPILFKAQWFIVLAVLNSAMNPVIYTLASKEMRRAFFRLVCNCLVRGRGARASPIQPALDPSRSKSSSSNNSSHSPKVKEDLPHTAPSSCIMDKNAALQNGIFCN

For `CCCCCCCCc1ccc(CCC(N)(CO)CO)cc1` [FTY720], the “effect on circulating lymphocytes” value in the series on circulating lymphocytes was “reduce circulating lymphocytes”. The bradycardia entry in series [1] is recorded as “results in bradycardia in the first 24 hours of treatment”.

For the compound `Cc1c(-c2noc(-c3ccc(OC(C)C)c(Cl)c3)n2)ccc2c1CCNC2CC(=O)O` (stereo not drawn) [Example 3, [6-(5-{3-Chloro-4-[(1-methylethyl)oxy]phenyl}-1,2,4-oxadiazol-3-yl)-5-methyl-1,2,3,4-tetrahydro-1-isoquinolinyl]acetic acid trifluoroacetate], the 50% effective concentration (EC50) at human S1P3 receptor is greater than 10 µM.

Consider `Cc1c(-c2noc(-c3ccc(OC(C)C)c(C#N)c3)n2)ccc2c1CCNC2CCCC(=O)O` (stereo not drawn) [Example 6, 4-[6-(5-{3-Cyano-4-[(1-methylethyl)oxy]phenyl}-1,2,4-oxadiazol-3-yl)-5-methyl-1,2,3,4-tetrahydro-1-isoquinolinyl]butanoic acid trifluoroacetate], for which the EC50 at human S1P3 receptor was greater than 10 µM.

On to `Cc1c(-c2noc(-c3ccc(OC(C)C)c(Cl)c3)n2)ccc2c1CCNC2CCCC(=O)O` (stereo not drawn) [Example 5, 4-[6-(5-{3-Chloro-4-[(1-methylethyl)oxy]phenyl}-1,2,4-oxadiazol-3-yl)-5-methyl-1,2,3,4-tetrahydro-1-isoquinolinyl]butanoic acid trifluoroacetate], for which the EC50 on human S1P3 receptor is greater than 10 µM.

As for `Cc1c(-c2noc(-c3ccc(OC(C)C)c(C#N)c3)n2)ccc2c1CCNC2CC(=O)O` (stereo not drawn) [Example 4, [6-(5-{3-Cyano-4-[(1-methylethyl)oxy]phenyl}-1,2,4-oxadiazol-3-yl)-5-methyl-1,2,3,4-tetrahydro-1-isoquinolinyl]acetic acid trifluoroacetate], the 50% effective concentration (EC50) at human S1P3 receptor was greater than 10 µM.
